# Measurements taken from patent publication US8492589B2, “Alkynyl phenyl derivative compounds for treating ophthalmic diseases and disorders” (Acucela Inc., priority 2007, dated 2013).
# Target: T1, visual cycle isomerase (Bovine RPE microsome membranes) (Bos taurus, UniProt Q28175)
# T1 construct: Bovine Retinal Pigment Epithelium (RPE) microsome membranes were the source of a visual cycle isomerase; from tissue; host or cells: bovine retinal pigment epithelium microsome membranes
# T1 sequence (Q28175 2-533 limits assumed): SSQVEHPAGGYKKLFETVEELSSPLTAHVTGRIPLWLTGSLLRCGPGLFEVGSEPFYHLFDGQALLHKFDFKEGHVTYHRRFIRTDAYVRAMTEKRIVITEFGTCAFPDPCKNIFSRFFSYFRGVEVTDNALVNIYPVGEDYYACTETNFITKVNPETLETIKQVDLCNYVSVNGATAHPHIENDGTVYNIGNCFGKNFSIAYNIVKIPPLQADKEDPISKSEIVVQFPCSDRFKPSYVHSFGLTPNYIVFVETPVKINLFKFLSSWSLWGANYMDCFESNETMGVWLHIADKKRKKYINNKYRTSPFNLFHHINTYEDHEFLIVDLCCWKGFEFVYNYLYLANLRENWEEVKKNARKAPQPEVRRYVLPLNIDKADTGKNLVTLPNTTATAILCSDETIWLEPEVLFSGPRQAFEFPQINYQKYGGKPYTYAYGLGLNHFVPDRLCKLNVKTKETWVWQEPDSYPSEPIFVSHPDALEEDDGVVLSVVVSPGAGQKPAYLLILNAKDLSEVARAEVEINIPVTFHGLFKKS
# Assay: In vitro isomerase inhibition assay, bovine RPE microsome membranes
# Format: biochemical
# Details: bovine RPE microsomes; 11-cis retinol formation
# Description: The capability of alkynyl phenyl-linked amine derivative compounds to inhibit the activity of a visual cycle isomerase was determined.
# Bovine Retinal Pigment Epithelium (RPE) microsome membranes were the source of a visual cycle isomerase.
# Crude RPE microsome extracts were thawed in a 37° C. water bath, and then immediately placed on ice. 50 ml crude RPE microsomes were placed into a 50 ml Teflon-glass homogenizer (Fisher Scientific, catalog no. 0841416M) on ice, powered by a hand-held DeWalt drill, and homogenized ten times up and down on ice under maximum speed. This process was repeated until the crude RPE microsome solution was homogenized. The homogenate was then subjected to centrifugation (50.2 Ti rotor (Beckman, Fullerton, Calif.), 13,000 RPM; 15360 Rcf) for 15 minutes at 4° C. The supernatant was collected and subjected to centrifugation at 42,000 RPM (160,000 Rcf; 50.2 Ti rotor) for 1 hour at 4° C. The supernatant was removed, and the pellets were suspended in 12 ml (final volume) cold 10 mM MOPS buffer, pH 7.0. The resuspended RPE membranes in 5 ml aliquots were homogenized in a glass-to-glass homogenizer (Fisher Scientific, catalog no. K885500-0021) to high homogeneity. Protein concentration was quantified using the BCA protein assay according to the manufacturer's protocol (Pierce, Rockford, Ill.). The homogenized RPE preparations were stored at −80° C.
# Recombinant human apo cellular retinaldehyde-binding protein (CRALBP) was cloned and expressed according to standard methods in the molecular biology art (see Crabb et al., Protein Science 7:746-57 (1998); Crabb et al., J. Biol. Chem. 263:18688-92 (1988)). Briefly, total RNA was prepared from confluent ARPE19 cells (American Type Culture Collection, Manassas, Va.), cDNA was synthesized using an oligo(dT)12-18 primer, and then DNA encoding CRALBP was amplified by two sequential polymerase chain reactions (see Crabb et al., J. Biol. Chem. 263:18688-92 (1988); Intres, et al., J. Biol. Chem. 269:25411-18 (1994); GenBank Accession No. L34219.1). The PCR product was sub-cloned into pTrcHis2-TOPO TA vector according to the manufacturer's protocol (Invitrogen Inc., Carlsbad, Calif.; catalog no. K4400-01), and then the sequence was confirmed according to standard nucleotide sequencing techniques. Recombinant 6×His-tagged human CRALBP was expressed in One Shot TOP 10 chemically competent E. coli cells (Invitrogen), and the recombinant polypeptide was isolated from E. coli cell lysates by nickel affinity chromatography using nickel (Ni) Sepharose XK16-20 columns for HPLC (Amersham Bioscience, Pittsburgh, Pa.; catalog no. 17-5268-02). The purified 6×His-tagged human CRALBP was dialyzed against 10 mM bis-tris-Propane (BTP) and analyzed by SDS-PAGE. The molecular weight of the recombinant human CRALBP was approximately 39 kDal.
# Alkkynyl phenyl-linked amine derivative compounds and control compounds were reconstituted in ethanol to 0.1 M. Ten-fold serial dilutions (10^−2, 10^−3, 10^−4, 10^−5, 10^−6 M) in ethanol of each compound were prepared for analysis in the isomerase assay.
# The isomerase assay was performed in 10 mM bis-tris-propane (BTP) buffer, pH 7.5, 0.5% BSA (diluted in BTP buffer), 1 mM sodium pyrophosphate, 20 μM all-trans retinol (in ethanol), and 6 μM apo-CRALBP. The test compounds (2 μl) (final […] dilution of serial dilution stocks) were added to the above reaction mixture to which RPE microsomes were added. The same volume of ethanol was added to the control reaction (absence of test compound). Bovine RPE microsomes (9 μl) (see above) were then added, and the mixtures transferred to 37° C. to initiate the reaction (total volume=150 μl). The reactions were stopped after 30 minutes by adding methanol (300 μl). Heptane was added (300 μl) and mixed into the reaction mixture by pipetting. Retinoid was extracted by agitating the reaction mixtures, followed by centrifugation in a microcentrifuge. […]
row,IC50 [µM],SMILES
1,≤ 1,"NCCOc1cccc(C#CC2(O)CCSCC2)c1 [Example 55, 4-((3-(2-Aminoethoxy)Phenyl)Ethynyl)Tetrahydro-2H-Thiopyran-4-ol]"
2,≤ 1,"NCCCc1cccc(C#CC2(O)CCCC2)c1 [Example 24, 1-((3-(3-Aminopropyl)phenyl)ethynyl)cyclopentanol]"
3,≤ 1,"NCCCc1cccc(C#Cc2ccccn2)c1 [Example 61, 3-(3-(Pyridin-2-ylethynyl)phenyl)propan-1-amine]"
4,≤ 1,"CCC(O)(C#Cc1cccc(OCCN)c1)CC [Example 27, 1-(3-(2-Aminoethoxy)phenyl)-3-ethylpent-1-yn-3-ol]"
5,≤ 1,"NCCCc1cccc(C#Cc2ccccc2)c1 [Example 37, 3-(3-(Phenylethynyl)phenyl)propan-1-amine]"
6,≤ 1,"CC(C)(O)C#Cc1cccc(CCCN)c1 [Example 7, 4-(3-(3-Aminopropyl)phenyl)-2-methylbut-3-yn-2-ol]"
7,≤ 1,"CC(C)(C)C(C)(O)C#Cc1cccc(CCCN)c1 (stereo not drawn) [Example 25, 1-(3-(3-Aminopropyl)phenyl)-3,4,4-trimethylpent-1-yn-3-ol]"
8,≤ 10,"NCCCc1cccc(C#C[C@@H](O)c2ccccc2)c1 [Example 26, (S)-3-(3-(3-Aminopropyl)phenyl)-1-phenylprop-2-yn-1-ol]"
9,≤ 10,"NCCOc1cccc(C#Cc2cccnc2)c1 [Example 62, 2-(3-(Pyridin-3-ylethynyl)phenoxy)ethanamine]"
10,≤ 1,"CCCC(O)(C#Cc1cccc([C@@H](O)CCN)c1)CCC [Compound 101, (S)-4-((3-(3-Amino-1-Hydroxypropyl)Phenyl)Ethynyl)Heptan-4-ol]"
11,≤ 1,"NCCCc1cccc(C#CC2CCCC2)c1 [Example 38, 3-(3-(Cyclopentylethynyl)phenyl)propan-1-amine]"
12,≤ 10,"CC(=O)NCCCc1cccc(C#CC2(O)CCCCC2)c1 [Example 60, N-(3-(3-((1-Hydroxycyclohexyl)Ethynyl)Phenyl)Propyl)Acetamide]"
13,≤ 1,"NCCC(O)c1cccc(C#CCCCCO)c1 (stereo not drawn) [Example 50, 6-(3-(3-Amino-1-hydroxypropyl)phenyl)hex-5-yn-1-ol]"
14,≤ 1,"NCCCc1cccc(C#CC2(O)CCCCC2)c1 [Example 11, 1-((3-(3-Aminopropyl)phenyl)ethynyl)cyclohexanol]"
15,≤ 1,"NCCC(O)c1cccc(C#CC2CCCCC2)c1 (stereo not drawn) [Example 52, 3-Amino-1-(3-(Cyclohexylethynyl)Phenyl)Propan-1-ol]"
16,≤ 1,"CCCC(O)(C#Cc1cccc(OCCN)c1)CCC [Example 18, 4-((3-(2-Aminoethoxy)phenyl)ethynyl)heptan-4-ol]"
17,≤ 1,"NCCOc1cccc(C#CC2CCCCC2)c1 [Example 80, 2-(3-(Cyclohexylethynyl)phenoxy)ethanamine]"
18,≤ 1,"COc1ccccc1C#Cc1cccc(CCCN)c1 [Example 36, 3-(3-((2-Methoxyphenyl)Ethynyl)Phenyl)Propan-1-Amine]"
19,≤ 1,"NCCOc1cccc(C#CC2(O)CCCCCC2)c1 [Example 78, 1-((3-(2-aminoethoxy)phenyl)ethynyl)-cycloheptanol]"
20,≤ 1,"NCCOc1cccc(C#CC2(O)CCCC2)c1 [Example 31, 1-((3-(2-Aminoethoxy)phenyl)ethynyl)cyclopentanol]"

row,IC50 [µM],SMILES
1,≤ 1,"NCCC(O)c1cccc(C#CCCO)c1 (stereo not drawn) [Example 51, 4-(3-(3-Amino-1-hydroxypropyl)phenyl)but-3-yn-1-ol]"
2,≤ 1,"CCC(O)(C#Cc1cccc(CCCN)c1)CC [Example 1, 1-(3-(3-Aminopropyl)phenyl)-3-ethylpent-1-yn-3-ol]"
3,≤ 1,"NCCC(O)c1cccc(C#CC2CCCC2)c1 (stereo not drawn) [Example 47, 3-Amino-1-(3-(cyclopentylethynyl)phenyl)propan-1-ol]"
4,≤ 1,"NCCC(O)c1cccc(C#CC2(O)CCCCC2)c1 (stereo not drawn) [Example 99, 1-((3-(3-Amino-1-hydroxypropyl)phenyl)ethynyl)cyclohexanol]"
5,≤ 1,"CCCC(O)(C#Cc1cccc(C(O)CCN)c1)CCC (stereo not drawn) [Example 19, 4-((3-(3-Amino-1-hydroxypropyl)phenyl)ethynyl)heptan-4-ol]"
6,≤ 1,"NCCOc1cccc(C#CC2(O)CCCCC2)c1 [Example 57, 1-((3-(2-Aminoethoxy)phenyl)ethynyl)cyclohexanol]"
7,≤ 10,"NCCCc1cccc(C#Cc2ccncc2)c1 [Example 63, 3-(3-(Pyridin-4-ylethynyl)phenyl)propan-1-amine]"
8,≤ 1,"CCCC(O)C#Cc1cccc(CCCN)c1 (stereo not drawn) [Example 8, 1-(3-(3-Aminopropyl)phenyl)hex-1-yn-3-ol]"
9,≤ 1,"NCCOc1cccc(C#CCCCCO)c1 [Example 74, 6-(3-(2-Aminoethoxy)phenyl)hex-5-yn-1-ol]"
10,≤ 1,"NCCC(O)c1cccc(C#CC2(O)CCCCCC2)c1 (stereo not drawn) [Example 59, 1-((3-(3-Amino-1-hydroxypropyl)phenyl)ethynyl)cycloheptanol]"
11,≤ 1,"CC(C)C(O)(C#Cc1cccc(CCCN)c1)C(C)C [Example 32, 1-(3-(3-Aminopropyl)phenyl)-3-isopropyl-4-methylpent-1-yn-3-ol]"
12,≤ 1,"CCCC(C#Cc1cccc(CCCN)c1)(CCC)OC [Example 4, 3-(3-(3-Methoxy-3-propylhex-1-ynyl)phenyl)propan-1-amine]"
13,≤ 1,"NCCC(O)c1cccc(C#CCCc2ccccc2)c1 (stereo not drawn) [Example 69, 3-Amino-1-(3-(4-phenylbut-1-ynyl)phenyl)propan-1-ol]"
14,≤ 1,"CC(C)C(O)(C#Cc1cccc(OCCN)c1)C(C)C [Example 28, 1-(3-(2-Aminoethoxy)phenyl)-3-isopropyl-4-methylpent-1-yn-3-ol]"
15,≤ 1,"COc1ccccc1C#Cc1cccc(C(O)CCN)c1 (stereo not drawn) [Example 54, 3-Amino-1-(3-((2-Methoxyphenyl)Ethynyl)Phenyl)Propan-1-ol]"
16,≤ 10,"NCCOc1cccc(C#Cc2ccccc2)c1 [Example 81, 2-(3-(Phenylethynyl)phenoxy)-ethanamine]"
17,≤ 1,"CCCC(O)(C#Cc1cccc([C@H](O)CCN)c1)CCC [Compound 100, (R)-4-((3-(3-Amino-1-Hydroxypropyl)Phenyl)Ethynyl)Heptan-4-ol]"
18,≤ 1,"CCCC(O)(C#Cc1cccc(CCCN)c1)CCC [Example 2, 4-((3-(3-Aminopropyl)phenyl)ethynyl)heptan-4-ol]"
19,≤ 1,"NCCOc1cccc(C#CC2CCCC2)c1 [Example 79, 2-(3-(Cyclopentylethynyl)phenoxy)-ethanamine]"
